Legend:
[1] = tested on: murine cortical neurons; assay: PHF-1 immunofluorescence in murine cortical neurons with or without folate; assay type: cell-based, mice; settings: folate deficiency, two hours
Experimental: For immunocytochemistry to detect paired helical filament-1 (PHF-1) staining (as an index of tau phosphorylation), cells were fixed for 15 minutes with 4% paraformaldehyde in 0.1 M phosphate buffer and immunostained by sequential reaction with a mouse monoclonal PHF-1 antibody that was raised against tau from paired helical filaments isolated from the brains of Alzheimer disease patients. Incubation with PHF-1 antibody was followed by rhodamine conjugated goat anti-mouse IgG and visualization using methods known in the art. […] In these experiments, SH-SY-5Y cells were cultured in folate-deficient Dulbecco's Modified Essential Medium (DMEM; Sigma) in the absence of serum for two hours. Cortical neurons were prepared from 12 day embryonic C57/B16 day old mice using known methods. The cortical neurons were cultured for 3 days in neurobasal medium with B27 supplements ([…] et al., 1999, J. Biol. Chem., 274:30322-30327). […] Both the SH-SY-5Y cultures and the cortical neurons were processed for PHF-1 (paired helical filament 1) immunofluorescence using known methods ([…] et al., 1999 supra). Control cells cultured in the continued presence of normal folate levels were also processed. Phospho-tau was also examined using immunoblot analysis. […]

[2] = tested on: cortical neurons; assay: Intracellular ROS by DCFD fluorescence in cortical neurons; assay type: cell-based, mice; settings: folate deprivation for two hours
Experimental: Intracellular reactive oxygen species (ROS) were monitored as described in […] et al., 1999 (J. Biol. Chem., 274:30322-30327). Briefly, cells were incubated for 30 minutes with dichloro-fluorescein diacetate (DCFD; acetoxymethyl ester; Molecular Probes, Inc., Eugene, Oreg.), which is used to detect intracellular peroxide levels. Incubation was followed by rinsing of cultures in serum-free medium and immediate capture of images using UV optics. Images were captured under epifluorescent and phase-contrast illumination using a DAGE CCL-72 cooled CCD camera via a Scion LG-3 frame grabber operated by NIH Image (see the Internet at rsb.info.nih.gov/nih-image). Images were then stored as PICT files on a Macintosh Power PC 7100AV for subsequent analysis. At least 100 cells in randomly-selected fields from duplicate cultures derived from multiple experiments were scored for fluorescent intensity using NIH Image analysis software. Representative background areas devoid of cells were similarly analyzed and subtracted from cell values to yield net densitometric values. All fields for each individual assay were illuminated, captured, and processed under identical settings. Corresponding phase-contrast images were obtained. Cell aggregates were excluded from the assays; only individual cells were quantified. Values were exported to Excel for statistical analyses using Student's t test. […]

[3] = Snowdon et al., 2000; cited from earlier work
[4] = tested on: SH-SY-5Y human neuroblastoma cells; assay: PHF-1 immunoreactivity (phospho-tau) in differentiated SH-SY-5Y cells with or without folate; assay type: cell-based
Experimental: Cultured cells were used to test individual agents and formulations. […] For immunocytochemistry to detect paired helical filament-1 (PHF-1) staining (as an index of tau phosphorylation), cells were fixed for 15 minutes with 4% paraformaldehyde in 0.1 M phosphate buffer and immunostained by sequential reaction with a mouse monoclonal PHF-1 antibody that was raised against tau from paired helical filaments isolated from the brains of Alzheimer disease patients. Incubation with PHF-1 antibody was followed by rhodamine conjugated goat anti-mouse IgG and visualization using methods known in the art. […] Cortical neurons were prepared from 12 day embryonic C57/B16 day old mice using known methods. Both the SH-SY-5Y cultures and the cortical neurons were processed for PHF-1 (paired helical filament 1) immunofluorescence using known methods ([…] et al., 1999 supra). Control cells cultured in the continued presence of normal folate levels were also processed. Phospho-tau was also examined using immunoblot analysis. […] The homogenates were sedimented at 13,000×g for 15 minutes and the resulting supernatant was electrophoresed, blotted, and the blot stained for PHF-1 using known methods.

[5] = tested on: SH-SY-5Y cells; assay: HPLC analysis of glutathione and thiols in SH-SY-5Y cells; assay type: cell-based, human
Experimental: Glutathione levels were quantified in homogenates of SH-SY-5Y cells. Cultures were rinsed twice with Tris-buffered saline (TBS), scraped from the plate in a small volume of TBS and homogenized on ice. Medium was also utilized for analysis of HCY along with cellular lysates, since HCY is normally exported from cells. Homogenates (100 μl) were reduced by mixing with 50 μl of 100 μM N-acetylcysteine or with 30 μl of 30 μM cystamine (as an internal standard) and 10 μl of tri-carboxyethylphosphine (100 mg/ml in 0.05 M HCl). Samples were vortexed, incubated at room temperature for 30 minutes, then centrifuged at 10,000×g for 10 minutes. 80 μl of the resulting supernatant were combined with 160 μl of 2 M boric acid/4 mM EDTA (pH 10.5), followed by 80 μl of 1.0 mg/ml SBDF [7-fluorobenzo-2-oxa-1,3-diazole-4-sulfonate] in boric acid/EDTA buffer). Samples were mixed, incubated for 60 minutes at 60° C., equilibrated to reach temperature, and 50 μl of the sample was then injected into a Hewlett Packard model 1090 HPLC, which is used with a 1046A fluorescence detector and a Hewlett Packard 4.6×60 mm high-speed analytical column packed with 3 μM ODs (C18) Hypersil silica. The mobile phase consisted of methanol/0.2 M acetate buffer pH 4.0 (2/98 by volume). Glutathione concentrations were then determined by comparison of peak area ratios of glutathione to the internal standard N-acetylcysteine in the sample compared to peak areas obtained for a glutathione standard curve. Samples were derived from 3-4 normal and 3-4 ApoE−/− mice for each dietary condition, from ≧2 independent experiments (total n≧6 for each diet for both experiments).
NAC directly scavenges ROS and also provide a source of intracellular cysteine for synthesis of glutathione during conditions of oxidative stress. […] Differentiated SH-SY-5Y cells with and without NAC treatment were subjected to HPLC along with 50 μM each of multiple thiol standards (“Standards”) as indicated in FIGS. 18A to 18C.

[6] = folate deprivation for 24 hours

For `Nc1nc2ncc(CNc3ccc(C(=O)N[C@@H](CCC(=O)O)C(=O)O)cc3)nc2c(=O)[nH]1` [folate, folic acid], the “average increase in PHF-1 immunofluorescence” value [1] is given as 1.5 fold, the ROS [2] is given as “increased reactive oxygen species (ROS)” and the “concentration in spinal fluid versus plasma” value [3] is given as “concentrated four-fold within spinal fluid over that observed within plasma”. The “PHF-1 (phospho-tau) Mean ± SEM” value ([4]; +Folate 4 hr) was 40.3 ± 3.9, the “% increase in phospho-tau compared to control” value (“% increase in phospho-tau” for short) ([4]; +Folate 24 hr) was −5.5% and the “PHF-1 (phospho-tau) Mean ± SEM” value ([4]; +Folate 24 hr) was 38.1 ± 3.1. The “PHF-1 levels after cultures received medium containing folate” value ([4]; after folate deprivation for 24 hours) was “returned to control levels within four hours”, the “average increase in PHF-1 immunofluorescence” value ([4]; folate deficiency, two hours) was 3.5 fold and the “average increase in phospho-tau” value [4, 6] was 29%. The “accumulation of phospho-tau after restoration of folate” value ([4]; following folate deprivation) was “reversed within two hours”, the “total tau levels (monoclonal antibody 5E2)” value ([4]; two hour deprivation of folate) was “not altered” and the “% increase in phospho-tau” value ([4]; −Folate 4 hr) was 29%. For the same molecule, the “PHF-1 (phospho-tau) Mean ± SEM” value ([4]; −Folate 4 hr) was 52.0 ± 3.4, the “% increase in phospho-tau” value ([4]; −Folate 24 hr) was −1.5% and the “PHF-1 (phospho-tau) Mean ± SEM” value ([4]; −Folate 24 hr) was 39.7 ± 2.6. For the same molecule, the total glutathione levels ([5]; brief (two hour) folate deprivation) was “no significant change”, the “depletion of total glutathione levels” value [5, 6] was “approximately 45%” and the oxidized glutathione ([5]; in the presence of folate) was 4%. For the same molecule, the oxidized glutathione ([5]; two hours of folate deprivation) was 46%.
